Data: patent publication US10238689B2, “Methods for combating bacterial infections by killing persister cells with mitomycin C and/or cisplatin” (THE PENN STATE RESEARCH FOUNDATION, priority 2015, dated 2019)
Values after ≈ are worked out from the molar mass of the structure shown. “Also recorded” adds a separate entry of the source.

Columns and labels:
[1] = test system: P. aeruginosa PA14 and ΔtpbA biofilm cells; assay: Persister cell killing assay (biofilm cells); assay type: cell-based, Pseudomonas aeruginosa; details: 3 h, 5×MIC (cisplatin 250 μg/mL, MMC 10 μg/mL), limit of detection 100 cells/mL
Protocol: Persister cell killing assay (biofilm cells). […] Biofilm formation was assayed using the crystal violet staining method (Fletcher 1977) and was normalized by planktonic cell growth (turbidity at 620 nm) to account for any differences in growth rates. Data were averaged from 6 replicate wells using at least two independent cultures. […] NaClO4 (0.1M) was used as a solvent control for cisplatin. Cell viability in biofilms was assayed before and after the MMC and cisplatin treatments by removing supernatants (planktonic cells) from each well carefully, resuspending the biofilm in normal saline, and sonicating twice at 3W for 10 sec (Ueda and Wood 2009) to break apart the biofilm cells (due to the aggregative nature of P. aeruginosa ΔtpbA cells). Suspensions from multiple wells were combined to get an averaged sample. Then the cell suspensions were serially diluted in normal saline for a drop assay to check cell viability.

[2] = test system: pDNA of E. coli K-12 BW25113/pCA24N; assay: Denaturing agarose gel electrophoresis of pDNA from treated cells; assay type: cell-based, Escherichia coli; details: non-persisters and rifampicin-induced persisters, MMC 100 μg/mL 1 h
Protocol: Overnight cultures (16 h) of E. coli K-12 BW25113/pCA24N grown in LB were diluted 1:1000 in buffered LB and grown to the desired turbidity. For exponential phase cells (i.e., non-persisters), cultures were grown to a turbidity of 2.0 at 600 nm. For rifampicin-induced persisters, cultures were grown to a turbidity of 0.8 at 600 nm, exposed to rifampicin (100 μg/mL) for 30 min, centrifuged, and resuspended in fresh medium to remove the rifampicin. Non-persister and rifampicin-induced persister cultures were treated with MMC (100 μg/mL) for 1 h. pDNA was extracted from samples taken before and after MMC treatment and linearized by HindIII digestion. As a positive control, 2 μg of linearized pDNA from non-persisters was crosslinked in vitro with 500 μg/mL (1.5 mM) MMC in 0.2 mM EDTA, 50 mM NaCl, and 5 mM Tris (pH=7.6) with Na2S2O4 added six times at 10 min intervals to reach a final concentration of 2.25 mM (1.5× molarity of MMC). The in vitro crosslinking reaction was performed anaerobically on ice and the reaction was stopped by exposure to air. Linearized pDNA was visualized after electrophoresis through a TAE agarose gel and an alkaline denaturing agarose gel. Experiment was performed with at least two independent cultures.

P. aeruginosa PA14 [3] = assay: Persister cell assay of pathogens (stationary phase), cisplatin vs MMC; assay type: cell-based, Pseudomonas aeruginosa; details: M9-glucose, 3 h
Protocol: For the persister cell assay of the pathogens, stationary-phase cells were used. Cultures of EHEC, P. aeruginosa, and S. aureus were prepared by a 1:1000 dilution of overnight grown cultures (LB medium for EHEC and P. aeruginosa, TSB for S. aureus) into fresh buffered LB medium for EHEC, M9-glucose for P. aeruginosa, and TSB for S. aureus and re-growing the cells to a turbidity of 3 to 4 at 600 nm for EHEC and S. aureus and growing for 24 h for P. aeruginosa. […]
NaClO4 (0.1M) was used as a solvent control. The viability of the cells was determined before and after cisplatin and MMC treatment. At least two independent cultures of each strain were used in each experiment.

pCA24N DNA = assay: In vitro crosslinking of DNA and denaturing agarose gel electrophoresis; assay type: biochemical; details: cisplatin 200 μM 1.5 h and 3.5 h; MMC 500 μg/mL; denaturing gel
Protocol: FIG. 10 provides data obtained from analysis of in vitro crosslinking of DNA with cisplatin and denaturing agarose gel electrophoresis. To produce the results shown in FIG. 10, pCA24N DNA (4518 bp) was in vitro crosslinked with cisplatin following a standard protocol. In brief, 2.2 μg of pCA24N DNA was linearized by HindIII digestion and cleaned using Wizard-SV gel and PCR clean-up system (Promega, Madison, Wis., USA). Linearized pCA24N was then treated with 200 μM (60 μg/mL) of cisplatin (Sigma-Aldrich, St. Louis, Mo., USA) for 1.5 h and 3.5 h at 37° C. The same amount of pCA24N DNA was also treated with an equivalent amount of 0.1M NaClO4 (solvent control for cisplatin) for 3.5 h at 37° C. Mitomycin C (MMC) was used as a positive control to compare types of crosslinking between cisplatin and MMC. For MMC, the same amount (2.2 μg) of pCA24N DNA was crosslinked essentially as in Example 1. In brief, linearized pCA24N DNA was treated with 500 μg/mL (1.5 mM) MMC or without MMC in 0.2 mM EDTA, 50 mM NaCl, and 5 mM Tris (pH 7.6) with Na2S2O4 added six times at 10 min intervals to reach a final concentration of 2.25 mM (1.5×molarity of MMC). The crosslinking reaction with MMC was performed anaerobically on ice and the reaction was stopped by exposure to air. […]

P. aeruginosa PA14 [4] = assay: Minimum inhibitory concentration (MIC) assay; assay type: cell-based, Pseudomonas aeruginosa
Protocol: (§1) Minimum inhibitory concentration (MIC) assay. To determine the MICs of cisplatin for E. coli K-12, enterohemorrhagic E. coli (EHEC), S. aureus, and P. aeruginosa (PAO1 and PA14), freshly inoculated cultures (at least two independent cultures) in buffered LB (TSB for S. aureus) were incubated for 16 h with varying concentrations of cisplatin, and growth inhibition was assayed by the lack of turbidity.

E. coli K-12 = assay: Minimum inhibitory concentration (MIC) assay; assay type: cell-based, Escherichia coli; details: 16 h, lack of turbidity
Protocol: as §1

[5] = 1×MIC (cisplatin 50 μg/mL, MMC 2 μg/mL)
[6] = 5×MIC (cisplatin 250 μg/mL, MMC 10 μg/mL)

Compound	cell viability of biofilm cells ([1]; PA14 biofilm)	cell viability of biofilm cells ([1]; ΔtpbA biofilm)	pDNA crosslinking (migration as double-stranded DNA under denaturing conditions) [2]	survival (P. aeruginosa PA14 [3]; [5])	survival (P. aeruginosa PA14 [3]; [6])	type of DNA crosslinking in vitro (pCA24N DNA)	MIC (1×MIC) (P. aeruginosa PA14 [4]) [µg/mL]	MIC (E. coli K-12) [µg/mL]
CO[C@@]12[C@H](COC(N)=O)C3=C(C(=O)C(C)=C(N)C3=O)N1C[C@@H]1N[C@@H]12 [MMC, mitomycin C]	could not eradicate	could not eradicate	crosslinks DNA in E. coli K-12 persister cells; also recorded: high percentage of crosslinking	5±2%	0.0056±0.0004%	crosslinks inter-strand DNA	2 (≈ 5.98 µM)	
N.N.[Cl][Pt][Cl] [cisplatin, cis-diamminodichloroplatinum(II)]	completely eradicated	completely eradicated		completely eradicated	eradicated	crosslinks the same strand of DNA; also recorded: crosslinks intra-strand DNA	50	100
